This is an account of results in patent US12728181B2, “Solution blow spun polymer constructs, compositions and methods of fabrications and uses relating thereto” (University of Maryland, College Park, priority 2019, dated 2026).

In series [1] the test system is small model bacterial inoculation. The note with it: cited from earlier work.
The subject of series [2] is keratinocytes. The conditions noted are these: cited from earlier work.
Series [3] concerns fibroblasts. The conditions noted are these: cited from earlier work.
In series [4] the test system is mouse. The conditions noted are these: in vivo, ip.
Excerpt: To determine the potential immune response to the fast-degrading components of the PSTA, we employed an intraperitoneal space implantation mouse model used to evaluate fibrosis (Doloff, J. C. et al. (2017) Colony Stimulating Factor-1 Receptor Is a Central Component of the Foreign Body Response to Biomaterial Implants in Rodents and Non-Human Primates, Nat. Mater. 16(6):671).

`[Ag+]` [Ag^+]: the “minimum inhibitory concentration (MIC)” value in series [1] (inoculation of the same size) is “about 5 μM”. The “minimum bactericidal concentration (MBC)” value in series [1] (small model bacterial inoculation) was “approximately 20 μM”. For the same molecule, the “24 hour cytotoxic limit (KCC)” value in series [2] was 500 µM. Also, in series [3], the “24 hour cytotoxic limit (FCC)” value is “approximately 50 μM”.
Take “poly(lactide-co-caprolactone) [LMW PLCL]”: the “fibrotic adhesions to the fat pads” value in series [4] was “no adhesions to the fat pad”.
